Assay results taken from the RepoRT retention time repository.

assay: Agilent ZORBAX 300 SB-C18, 150 × 1 mm, 3.5 µm; A: water + 0.01% heptafluorobutyric acid; B: acetonitrile + 0.01% heptafluorobutyric acid; gradient (min/%B) 0/0 100/90; conditions: stereoisomer not certain

Row | Compound | LC retention time [min]
1 | CC(=O)c1cccc(NC(=O)c2ccc(C)cc2)c1 | 13
2 | C=Cn1ccnc1 | 6.3
3 | CCCCCCCCCN(C)C | 11.1
4 | CC(C)(C)C1=CC(=O)CN(C(C)(C)C)C1 | 8.19
5 | Cc1ccc(-c2ccc3ccccc3n2)cc1 | 13.4
6 | Cc1ccc(OC(=O)CCC(=O)N2CCN(C(=O)CCC(=O)Oc3ccc(C)cc3)CC2)cc1 | 14.3
7 | NCc1ccc2ncccc2c1 | 7.05
8 | Cc1[nH]c(-c2ccccc2)c(-c2ccccc2)c1C(=O)OCc1ccccc1 | 18.2
9 | CC(=Nc1ccc(N=Nc2ccccc2)cc1)N(C)C | 10.9
10 | CC(=O)Nc1ccccn1 | 6.5
11 | N=C(N)SCCSCCSC(=N)N | 7.21
12 | Cc1ccc(NC(=O)CCN2CCN(C)CC2)cc1 | 8.34
13 | CCCc1ccccc1N | 9.54
14 | CCOC(=O)C1=CN(c2cc(C)ccc2C)C=C(C(=O)OCC)C1c1cccc(C)c1 | 21.5
15 | NCCN1CCCCC1 | 6.98
16 | CCOc1ccc(Cc2c(O)n(-c3ccc(CC)cc3)c(=O)[nH]c2=O)cc1 | 14.4
17 | CN(C)CCN(Cc1ccccc1)c1ccccn1 | 10.1
18 | CCCCSCCSC(=N)N | 9.27
19 | O=c1[nH]c(-c2ccccc2)cn1C1CCNCC1 | 8.03
20 | Cc1nc2ccccc2c(=O)o1 | 9.03
21 | CCCc1cc2c(cc1N)OCO2 | 9.27
22 | C[N+]12CCC(CC1)C1CC(O)CCC12 (centres undefined) | 6.39
23 | Cc1[nH]c(=S)[nH]c1CC(C)C | 9.02

Row | Compound | LC retention time [min]
24 | c1cn[nH]c1 | 6.84
25 | O=C(NCc1n[nH]c(=O)c2ccccc12)C(=Cc1ccco1)NC(=O)c1ccco1 | 9.12
26 | CNCc1n[nH]c(=O)[nH]1 | 2.58
27 | O=C(CNc1ccc2ccccc2c1)NN=Cc1ccccc1 | 14.8
28 | O=C(OCC(c1ccccc1)c1ccccc1)c1cccnc1 | 15.9
29 | Cc1ccc(C)nc1 | 6.66
30 | CN(C)C1CCCCC1 | 7.57
31 | CCc1ccccn1 | 6.68
32 | Cc1nc2ccccc2nc1N=C(N)NC(=O)c1ccccc1 | 11.1
33 | Cc1ccc2c(c1N)C(=O)c1ccccc1C2=O | 14.9
34 | CN(C)c1ccc(C=NNC(=O)Cc2n[nH]c(=O)[nH]c2=O)cc1 | 8.47
35 | CC1CCCN(CC(O)CN)C1 (centres undefined) | 7.32
36 | CNCc1ccccc1 | 7.43
37 | NC(=S)NCCc1ccccc1 | 9.59
38 | Oc1cccc(-c2cc(-c3ccccc3)c3c(ccc4ncccc43)n2)c1 | 13.7
39 | CN1CCc2cccc3c2C1Cc1ccc(O)c(O)c1-3 (centres undefined) | 8.8
40 | CC1CC(C)(C)Nc2c(O)cccc21 (centres undefined) | 8.99
41 | CCOC(=O)C(Cc1ccc(NC(=O)c2ccccc2)cc1)N1C(=O)c2ccccc2C1=O (centres undefined) | 15.2
42 | CCCCCCCCCCOc1ccc(C(=O)NCCN2Cc3ccccc3C2=O)cc1 | 20.2
43 | CCOC(=O)C(=CNc1ccccc1N)C(=O)OCC | 12.8
44 | O=CNC1CCCCC1 | 8.38
45 | COc1cc(C2ON=C(CN3CCOCC3)C2C)c(OC)c2c1OCO2 (centres undefined) | 9.6
46 | CC1(C)OCOC1=CC[N+](C)(C)C | 7.65

Row | Compound | LC retention time [min]
47 | Cn1c(=N)n(CC(=O)c2ccccc2)c2ccccc21 | 10
48 | CCCC[N+](CCCC)(CCCC)CCCC | 13.2
49 | O=C(O)c1cc(-c2ccncc2)nc2ccccc12 | 8.16
50 | CCCCN(C)C | 7.03
51 | Cc1cccc(C=NNC(=O)c2cc3ccccc3cc2O)c1 | 14.9
52 | c1ccc2c(NC3=NCCS3)cccc2c1 | 9.27
53 | Cc1ccnc(C)c1 | 6.8
54 | Nc1nc(N)nc(Cc2ccccc2)n1 | 7.96
55 | Cc1cc2ncn(Cc3c(C)c(C)cc(C)c3C)c2cc1C | 13
56 | O=c1[nH][nH]c(=O)c2nccnc12 | 3.97
57 | Cc1[nH]c(C=O)c(C)c1C | 10.3
58 | CCCCCCCCCC(=O)N(C)C | 16.6
59 | NC(=O)NNC(=S)Nc1ccccc1 | 7.03
60 | c1ccc(-c2ccc3ccccc3n2)nc1 | 11.3
61 | Cc1cccc(C(=O)C=CN(C)C)c1 | 10.9
62 | COc1ccc2c(c1)C(C)CC(C)(C)N2 (centres undefined) | 9.43
63 | CCCCCCCCCN | 11
64 | COc1ccc(N)cc1 | 7.59
65 | O=C(O)CCC(=O)Nc1ccc2c(c1)CCCC2 | 11.2
66 | c1ccc(CN2CCN(Cc3ccccc3)C2c2cccs2)cc1 | 11
67 | Nc1nc(N)nc(-c2ccc(-c3nc(N)nc(N)n3)cc2)n1 | 7.16
68 | CCc1ccc(C(c2c[nH]c3ccccc23)c2c[nH]c3ccccc23)cc1 | 18.2
69 | Cc1ccc(C(=O)NCc2ccco2)c(C)c1 | 12.3

Row | Compound | LC retention time [min]
70 | c1ccc2[nH]c(CCn3c4c(c5ccccc53)CCCC4)nc2c1 | 12
71 | c1ccc(CNc2ccccn2)cc1 | 8.6
72 | Cc1cccc(CN)c1 | 7.91
73 | O=C(O)C1Cc2ccccc2CN1 (centres undefined) | 6.54
74 | O=C(NN=Cc1ccccc1)c1ccncc1 | 8.96
75 | CCOC(=O)C=CC(=O)NNC(=O)CCC(=O)Nc1ccc(C)cc1C | 10.1
76 | c1cnc2[nH]ccc2c1 | 7.27
77 | c1ccc2c3c([nH]c2c1)CCCC3 | 15.7
78 | COc1ccccc1NC(=O)C(c1ccccc1)c1ccccc1 | 16.6
79 | COc1cc(NC(C)=O)cc(OC)c1OC | 8.42
80 | Cc1ccc2nc3nc(C)cc(C)c3c(N)c2c1 | 8.99
81 | Cc1ccc(C)n1-c1cccc(C(=O)O)c1 | 12.9
82 | CCCCOC(=O)c1ccc(NC(=O)CCCC)cc1 | 16.3
83 | CNC(C)(C)Cc1ccccc1 | 8.99
84 | CC(=O)N1CCC(C2CCNCC2)CC1 | 7
85 | CN1CCCCC1 | 6.61
86 | Cc1[nH]c(=S)[nH]c1-c1ccccc1 | 9.06
87 | CCCN1CCC(=O)CC1 | 6.66
88 | CNCCc1ccccc1 | 7.97
89 | CCCCCCCCCCCCN(C)C | 13.7
90 | CCCNC(C)C(=O)Nc1c(C)csc1C(=O)OC (centres undefined) | 9.27
91 | Cn1c(=O)[nH]cc(CC(=O)O)c1=O | 5.4
92 | CC1CCCCN1C(=O)c1cncc(C(=O)N2CCCCC2C)c1 (centres undefined) | 11.3

Row | Compound | LC retention time [min]
93 | C#CC(C)(C)NC(C)=O | 6.79
94 | Cc1cccc(C)n1 | 6.46
95 | CN(C)C=CC=O | 5.98
96 | O=C(O)c1cccc(C(=O)O)n1 | 3.12
97 | CNC(=S)C(=S)NC | 7.06
98 | O=c1[nH]c(N=NCc2c[nH]c3ccccc23)nnc1-c1ccccc1 | 11.8
99 | Cc1ccc(-c2nc(-c3c[nH]c4ccccc34)[nH]c2-c2ccc(C)cc2)cc1 | 13.7
100 | CNC(C)c1ccccc1 (centres undefined) | 7.92
101 | CNCCOC | 4.63
102 | CCCC(N)=O | 4.71
103 | O=C1CN(C(=O)CCCc2c[nH]c3ccccc23)c2ccccc2N1 | 12
104 | C(=Cc1ccco1)C=NN1CCN(Cc2cccc3ccccc23)CC1 | 11.2
105 | Nc1ccc(CCc2ccncc2)cc1 | 7.22
106 | CCCc1c(O)c2ccccc2[nH]c1=O | 9.59
107 | O=c1cc[nH]c(=O)[nH]1 | 1.47
108 | CN(C)c1nc(N(C)C)nc(N(C)C)n1 | 9.15
109 | CN(C)CCCN1CCC(=O)C2CCCCC21 (centres undefined) | 7.52
110 | Cc1ccc(-c2cc3ccccc3[nH]2)c(C)c1 | 17.6
111 | COc1ccc(-c2cc(=O)c3ccc(OC)c(OC)c3o2)cc1OC | 12.7
112 | C#CC(C)(C)NC(=O)NC(C)(C)C#C | 9.95
113 | CCC(c1ccc(C)cc1)N(NC(=O)C(O)(c1ccc(C)cc1)c1ccc(C)cc1)C(=O)c1ccccc1 (centres undefined) | 18.3
114 | Cc1cc(C(=O)O)c2ccccc2n1 | 5.51
115 | NC1CC(CO)C(O)C1O (centres undefined) | 2.49

Row | Compound | LC retention time [min]
116 | Cc1ccc(NC(=O)C=CC(=O)O)c(C)c1 | 10.8
117 | CCC(NC(C)C)C(O)c1ccc(O)c2[nH]c(=O)ccc12 (centres undefined) | 7.81
118 | CC(=O)c1ccc2c(c1)N(CCCN(C)C)c1ccccc1S2 | 11.1
119 | C(=NNc1nncc2ccccc12)c1cccnc1 | 8.37
120 | CN(C)C1C(=O)C(C(=O)NCN2CCCC2)C(=O)C2(O)C(=O)C3C(=O)c4c(O)cccc4C(C)(O)C3CC12 (centres undefined) | 8.91
121 | Nc1cccc(C2=NCCN2)c1 | 6.85
122 | Nc1cc(C(=O)N2CCCCC2)cc(C(=O)N2CCCCC2)c1 | 9.88
123 | NC(CO)(CO)CO | 2.86
124 | Cn1c2nc(=O)[nH]c(=O)c-2nc2ccccc21 | 8.38
125 | CCCc1ccc(O)c(N)c1 | 8.64
126 | O=C(NCCN1CCN(Cc2ccccc2)CC1)C(=O)Nc1ccccc1 | 9.75
127 | Nc1nc(N)nc(N)n1 | 4.25
128 | O=c1[nH]c2ccccc2[nH]c1=S | 7.24
129 | c1ccc(-n2cnnn2)cc1 | 9.44
130 | Cc1cc(=O)[nH]c(C(C)C)n1 | 6.9
131 | COc1ccc(C=CC(=O)C=Cc2ccc(OC)cc2)cc1 | 16.1
132 | CCOc1nc(N(c2ccccc2)c2ccccc2)[nH]c(=O)n1 | 11.7
133 | CN(N)c1nc(N2CCCC2)nc(N2CCCC2)n1 | 10.3
134 | O=C(O)C1CCCCC1C(=O)Nc1ccc2c(c1)CCCC2 (centres undefined) | 13.8
